Assay results published in US7598397B2, “Sulfonamide peri-substituted bicyclics for occlusive artery disease” (deCODE genetics ehf, priority 2004, dated 2009).

What follows are compounds tested against T1, prostanoid EP3 receptors (Homo sapiens, UniProt P43115) (assay: binding on prostanoid EP3 receptors (method of Abramovitz et al.)). Details: read-out: Activity (EP3 receptor binding, IC50 class).
T1 sequence (P43115 1-390): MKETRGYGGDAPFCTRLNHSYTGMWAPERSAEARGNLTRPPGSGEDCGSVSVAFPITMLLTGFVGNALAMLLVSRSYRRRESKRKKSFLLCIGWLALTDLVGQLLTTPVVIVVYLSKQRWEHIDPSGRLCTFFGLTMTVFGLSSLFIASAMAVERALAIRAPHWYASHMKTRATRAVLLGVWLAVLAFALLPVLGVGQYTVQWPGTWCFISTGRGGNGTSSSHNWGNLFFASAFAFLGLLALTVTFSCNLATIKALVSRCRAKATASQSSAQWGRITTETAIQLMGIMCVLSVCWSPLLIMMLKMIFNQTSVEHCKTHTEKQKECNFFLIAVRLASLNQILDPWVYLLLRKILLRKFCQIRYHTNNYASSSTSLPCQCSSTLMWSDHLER
Procedure: The compounds of the invention were assayed for their binding on prostanoid EP3 receptors according to the method of Abramovitz et al. [Bioch. Biophys.

| SMILES | IC50 [µM] |
| --- | --- |
| O=C(COc1cccc2c1N(Cc1ccccc1C(F)(F)F)C(=O)CO2)NS(=O)(=O)c1cccs1 [Compound P031] | 1 to 10 |
| O=C(COc1cccc2c1N(Cc1ccc(OC(F)(F)F)cc1)C(=O)CO2)NS(=O)(=O)c1cccs1 [Compound P027] | 1 to 10 |
| O=C(CNc1cccc2c1N(Cc1ccc3ccccc3c1)C(=O)CO2)NS(=O)(=O)c1cccs1 [Compound P049, Thiophen-2-sulfonic acid[2-(4-naphthalen-2-ylmethyl-3-oxo-3,4-dihydro-2H-benzo[1,4]oxazin-5-ylamino)-acetyl]-amide] | 1 to 10 |
| COc1cccc(CN2C(=O)COc3cccc(OCC(=O)NS(=O)(=O)c4cccs4)c32)c1 [Compound P030] | 1 to 10 |
| O=C(C=Cc1cccc2c1N(Cc1ccc(Cl)cc1Cl)C(=O)C2)NS(=O)(=O)c1cc(Cl)c(Cl)s1 [Compound P127] | < 1 |
| CC(=O)Nc1ccc(S(=O)(=O)c2c[nH]c3cccc(OCC(=O)NS(=O)(=O)c4cc(Cl)c(Cl)s4)c23)cc1 [Compound P235] | < 1 |
| O=C(C=Cc1cccc2c1N(Cc1ccc(Cl)cc1Cl)C(=O)C2=O)NS(=O)(=O)c1cc(Cl)c(Cl)s1 [Compound P113] | < 1 |
| Cn1cc(C=CC(=O)NS(=O)(=O)c2ccccc2Cl)c2c(Oc3ccc4ccccc4c3)cccc21 [Compound P352] | < 1 |
| Cn1cc(C=CC(=O)NS(=O)(=O)c2ccc(F)cc2)c2c(Oc3ccc4ccccc4c3)cccc21 [Compound P351] | < 1 |
| CC12CCCC(C=CC(=O)NS(=O)(=O)c3ccc(OC(F)(F)F)cc3)=C1N(Cc1ccc3ccccc3c1)C(=O)C2 (stereo not drawn) [Compound P269] | < 1 |
| Cn1cc(C=CC(=O)NS(=O)(=O)c2cc(F)c(F)cc2F)c2c(Oc3ccc(F)c(Cl)c3)cccc21 [Compound P328] | < 1 |
| CN1C(=O)C(Nc2ccc(F)c(F)c2)c2c(C=CC(=O)NS(=O)(=O)c3cc(Cl)c(Cl)s3)cccc21 (stereo not drawn) [Compound P272] | < 1 |
| Cc1cn(Cc2ccccc2Cl)c2c(/C=C/C(=O)NS(=O)(=O)c3cccs3)cccc12 [Compound P086] | < 1 |
| Cn1cc(C=CC(=O)NS(=O)(=O)c2cc(F)c(F)cc2F)c2c(Oc3ccc(F)c(F)c3)cccc21 [Compound P318] | < 1 |
| O=C(CCc1cccc2ccn(Cc3ccc4ccccc4c3)c12)NS(=O)(=O)c1cccs1 [Compound P074] | < 1 |
| Cn1cc(C=CC(=O)NS(=O)(=O)c2cc(F)c(F)cc2F)c2c(Oc3ccc(F)cc3Cl)cccc21 [Compound P340] | < 1 |

| SMILES | IC50 [µM] |
| --- | --- |
| Cn1cc(/C=C/C(=O)NS(=O)(=O)c2cc(Cl)c(Cl)s2)c2c(Oc3ccc(Cl)cc3)cccc21 [Compound P311] | < 1 |
| CCOC(=O)C12CCCC(C=CC(=O)NS(=O)(=O)c3cc(F)c(F)cc3F)=C1N(Cc1ccc(Cl)cc1Cl)C(=O)C2 (stereo not drawn) [Compound P344] | < 1 |
| Cn1nnnc1Sc1c[nH]c2cccc(OCC(=O)NS(=O)(=O)c3cc(Cl)c(Cl)s3)c12 [Compound P227] | < 1 |
| O=C(COc1cccc2c1N(Cc1ccc(Cl)cc1)C(=O)CO2)NS(=O)(=O)c1cccs1 [Compound P025] | > 10 |
| Cn1cc(/C=C/C(=O)NS(=O)(=O)c2ccc(F)c(F)c2)c2c(Oc3ccc4ccccc4c3)cccc21 [Compound P334] | < 1 |
| O=C(COc1cccc2oc(=O)n(Cc3ccc4c(c3)OCO4)c12)NS(=O)(=O)c1cccs1 [Compound P050] | 1 to 10 |
| CC12CCCC(C=CC(=O)NS(=O)(=O)c3cc(Cl)c(Cl)s3)=C1N(Cc1cccc(Cl)c1Cl)C(=O)C2 (stereo not drawn) [Compound P299] | < 1 |
| Cc1nnc(Sc2c[nH]c3cccc(OCC(=O)NS(=O)(=O)c4cc(Cl)c(Cl)s4)c23)s1 [Compound P230] | < 1 |
| Cn1cc(C=CC(=O)NS(=O)(=O)c2ccc(F)c(F)c2)c2c(Oc3ccc(Cl)cc3F)cccc21 [Compound P338] | < 1 |
| Cn1cc(C=CC(=O)NS(=O)(=O)c2ccccc2F)c2c(Oc3ccc4ccccc4c3)cccc21 [Compound P364] | < 1 |
| Cc1cn(CCC(=O)NS(=O)(=O)c2cc(F)c(F)cc2F)c2c(Oc3ccc(Cl)cc3Cl)cc(F)cc12 [Compound P382] | < 1 |
| CC1(C)C(=O)N(Cc2ccc(Cl)cc2Cl)c2c(C=CC(=O)NS(=O)(=O)c3cc(Cl)c(Cl)s3)cccc21 [Compound P131] | < 1 |
| Cc1ccc(S(=O)(=O)c2c[nH]c3cccc(OCC(=O)NS(=O)(=O)c4cc(Cl)c(Cl)s4)c23)c(C)c1 [Compound P172] | < 1 |
| O=C(Nc1cccc2c1N(Cc1ccc3ccccc3c1)C(=O)CO2)C(=O)NS(=O)(=O)c1cccs1 [Compound P019, N-(4-Naphthalen-2-ylmethyl-3-oxo-3,4-dihydro-2H-benzo[1,4]oxazin-5-yl)-2-oxo-2-(thiophen-2-sulfonylamino)-acetamide] | 1 to 10 |
| Cc1ccc(C)c(Cn2c(=O)oc3cccc(OCC(=O)NS(=O)(=O)c4cccs4)c32)c1 [Compound P053] | 1 to 10 |

Second part, the compound after the results:

| IC50 [µM] | SMILES |
| --- | --- |
| < 1 | O=C(C=Cc1cccc2ccn(Cc3ccc(Cl)cc3Cl)c12)NS(=O)(=O)c1cc(Cl)c(Cl)s1 [Compound P129] |
| < 1 | COc1ccc(Br)cc1S(=O)(=O)NC(=O)COc1cccc2oc(=O)n(Cc3ccc4ccccc4c3)c12 [Compound P047] |
| < 1 | Cn1cc(C=CC(=O)NS(=O)(=O)c2c(F)cccc2F)c2c(Oc3ccc4ccccc4c3)cccc21 [Compound P360] |
| < 1 | Cn1cc(C=CC(=O)NS(=O)(=O)c2cc(F)c(F)cc2F)c2c(Oc3ccc(F)cc3F)cccc21 [Compound P324] |
| < 1 | Cc1ccc(Sc2c[nH]c3cccc(OCC(=O)NS(=O)(=O)c4cc(Cl)c(Cl)s4)c23)c(C)c1 [Compound P165] |
| < 1 | CC(=O)Nc1ccc(Sc2c[nH]c3cccc(OCC(=O)NS(=O)(=O)c4cc(Cl)c(Cl)s4)c23)cc1 [Compound P233] |
| < 1 | Cc1cn(CC2CCOCC2)c2c(/C=C/C(=O)NS(=O)(=O)c3cc(Cl)c(Cl)s3)cccc12 [Compound P144] |
| < 1 | Cc1cn(Cc2ccc(OC(F)F)cc2)c2c(/C=C/C(=O)NS(=O)(=O)c3cc(Cl)c(Cl)s3)cccc12 [Compound P145] |
| < 1 | Cc1cn(Cc2ccc(Cl)c(Cl)c2)c2c(/C=C/C(=O)NS(=O)(=O)c3cc(Cl)c(Cl)s3)cccc12 [Compound P118] |
| < 1 | O=C(C=Cc1cccc2c1N(Cc1ccc3ccccc3c1)C(=O)C2(O)C(F)(F)F)NS(=O)(=O)c1cccs1 (stereo not drawn) [Compound P104] |
| < 1 | O=C(COc1cccc2[nH]cc(Sc3ccc4ccccc4c3)c12)NS(=O)(=O)c1ccccc1Cl [Compound P183] |
| < 1 | Cc1cn(Cc2cn3ccccc3n2)c2c(C=CC(=O)NS(=O)(=O)c3cc(F)c(F)cc3F)cc(F)cc12 [Compound P402] |
| < 1 | O=C(COc1cccc2[nH]cc(Sc3ccc4ccccc4c3)c12)NS(=O)(=O)c1cc(F)c(F)cc1F [Compound P226] |
| < 1 | Cn1cc(C=CC(=O)NS(=O)(=O)c2cc(F)c(F)cc2F)c2c(Oc3ccc(Cl)c(Cl)c3)cccc21 [Compound P292] |
| < 1 | Cn1cc(C=CC(=O)NS(=O)(=O)c2cc(Cl)c(Cl)s2)c2c(Oc3cccc(Cl)c3Cl)cccc21 [Compound P291] |
| < 1 | CC1C(=O)N(Cc2ccc(Cl)cc2Cl)c2c(C=CC(=O)NS(=O)(=O)c3cccs3)cc(F)cc21 (stereo not drawn) [Compound P065] |

| IC50 [µM] | SMILES |
| --- | --- |
| < 1 | Cc1cn(Cc2ccc(Cl)cc2Cl)c2c(C=CC(=O)NS(=O)(=O)c3cc(Cl)c(Cl)s3)cncc12 [Compound P348] |
| < 1 | Cc1cn(Cc2cc(F)cc(F)c2)c2c(/C=C/C(=O)NS(=O)(=O)c3cc(Cl)c(Cl)s3)cccc12 [Compound P136] |
| < 1 | Cc1cn(Cc2ccc(F)cc2)c2c(C=CC(=O)NS(=O)(=O)c3cc(F)c(F)cc3F)cc(F)cc12 [Compound P312] |
| < 1 | O=C(COc1cccc2c1N(Cc1ccc3ccccc3c1)C(=O)CO2)NS(=O)(=O)c1cccs1 [Compound P018] |
| < 1 | O=C(COc1cccc2[nH]cc(Sc3ccc4ccccc4c3)c12)NS(=O)(=O)c1cccc(Cl)c1 [Compound P184] |
| < 1 | Cn1cc(C=CC(=O)NS(=O)(=O)c2cc(F)c(F)cc2F)c2c(Oc3cnc4ccccc4n3)cccc21 [Compound P394] |
| < 1 | O=C(C=Cc1cc(F)cc2ccn(Cc3ccc4ccccc4c3)c12)NS(=O)(=O)c1cccs1 [Compound P060] |
| < 1 | Cn1cc(C=CC(=O)NS(=O)(=O)c2ccc(Cl)c(Cl)c2)c2c(Oc3ccc4ccccc4c3)cccc21 [Compound P355] |
| < 1 | Cn1nnnc1S(=O)(=O)c1c[nH]c2cccc(OCC(=O)NS(=O)(=O)c3cc(Cl)c(Cl)s3)c12 [Compound P239] |
| < 1 | O=C(COc1cccc2[nH]cc(Sc3ccc(Cl)c(Cl)c3)c12)NS(=O)(=O)c1cc(Cl)c(Cl)s1 [Compound P178] |
| < 1 | Cn1cc(/C=C/C(=O)NS(=O)(=O)c2cc(F)c(F)cc2F)c2c(Oc3ccc4ccccc4c3)cccc21 [Compound P343] |
| < 1 | Cn1cc(C=CC(=O)NS(=O)(=O)c2cc(F)cc(F)c2)c2c(Oc3ccc4ccccc4c3)cccc21 [Compound P361] |
| < 1 | O=C(C=Cc1cccc2c1N(Cc1ccc3ccccc3c1)C(=O)C21OCCO1)NS(=O)(=O)c1cc(Cl)c(Cl)s1 [Compound P114] |
| < 1 | CC(C)(C)OC(=O)N1CCCc2cccc(OCC(=O)NS(=O)(=O)c3cccs3)c21 [Compound P273] |
| < 1 | O=C(COc1cccc2[nH]cc(Sc3ncccn3)c12)NS(=O)(=O)c1cc(Cl)c(Cl)s1 [Compound P211] |
| < 1 | O=C(COc1cccc2[nH]cc(S(=O)(=O)c3ccc4ccccc4c3)c12)NS(=O)(=O)c1cccc(Cl)c1 [Compound P192] |
